Test results as given in patent US4254056A, “2-Aminomethyl phenol derivative and process for preparing thereof” (Ono Pharmaceutical Co., Ltd., priority 1977, dated 1981).

Experiments:
[1] = Diuretic effect on rats: urinary volume during a 5 hour period after oral administration; format: in vivo, Wister male rats; conditions: 3 mg/kg oral; for Urine discharge (in words): Wister male rats; for Urinary volume relative to control: starved rats, 5 hour period after administration, control taken as 100%
Procedure: About 16 hours before oral administration with 3 mg/kg of the compounds, the rats were starved, with only water available. The urinary volume during a 5 hour period after administration was compared with that of the control groups, taking the urinary volume of the latter as 100%.

[2] = system: Carrageenan-Induced Edema in Rat Paws; assay: Anti-inflammatory effect on carrageenan-induced edema in rat paws (oral); format: in vivo, Wister male rats; conditions: for % Inhibition of Foot Edema: 1 hour before carrageenan, swelling at third hour, control taken as 100%; for Inhibition of carrageenan-induced edema (in words): oral, Wister male rats
Procedure: One hour after oral administration with these compounds, the rats were subcutaneously injected with 0.1 m of 1% carrageenan suspension on the plantar surface of the right hind foot. The swelling was measured at the third hour of carrageenan injection. Anti-inflammatory effect of the compounds was determined as percentage inhibition of the swelling, taking the swelling in the control groups as 100%.

| SMILES | Urine discharge (in words) [1] | Urinary volume relative to control [1] | % Inhibition of Foot Edema ([2]; 10 mg/kg oral) | % Inhibition of Foot Edema ([2]; 30 mg/kg oral) | Inhibition of carrageenan-induced edema (in words) [2] |
| --- | --- | --- | --- | --- | --- |
| Br.NCc1c(O)c(I)cc2c1CCCC2 [1-Aminomethyl-3-iodo-5,6,7,8-tetrahydro-2-naphthol Hydrobromide] | discharged increased amounts of urine | 142% | 55.6% | 68.8% | had carrageenan-induced edema in their paws inhibited |
| CN(C)Cc1cc2c(c(I)c1O)CCCC2.Cl [1-Iodo-3-(N,N-dimethylaminomethyl)-5,6,7,8-tetrahydro-2-naphthol Hydrochloride] | discharged increased amounts of urine | 232% |  |  |  |
| CC1(C)CCCc2c1cc(CN)c(O)c2I.Cl [1-Iodo-3-aminomethyl-5,5-dimethyl-5,6,7,8-tetrahydro-2-naphthol Hydrochloride] |  |  | 44.1% | 66.3% | had carrageenan-induced edema in their paws inhibited |
| Br.NCc1cc2c(c(I)c1O)CCCC2 [1-Iodo-3-aminomethyl-5,6,7,8-tetrahydro-2-naphthol Hydrobromide] | discharged increased amounts of urine | 226% | 68.8% | 69.6% | had carrageenan-induced edema in their paws inhibited |
| CC1CCc2c1cc(CN)c(O)c2I.Cl (stereo not shown) [1-Methyl-4-iodo-6-aminomethyl-5-indanol hydrochloride] | discharged increased amounts of urine | 208% |  |  |  |
| Cl.NCc1cc2c(c(I)c1O)CCC2 [4-Iodo-6-aminomethyl-5-indanol Hydrochloride] | discharged increased amounts of urine | 138% | 41.1% | 55.8% | had carrageenan-induced edema in their paws inhibited |
